From PMC8916643, “Molecular physiology of pumiliotoxin sequestration in a poison frog” (PLoS ONE, 2022)

Legend:
[1] = test system: mammalian and insect voltage-gated sodium and potassium channels; design: method as in PMID 18061227; conditions: 100 μM; strongest effect on hKv1.3; cited from earlier work
KCNQ1/minK = biological target: T1, KCNQ1/minK (Homo sapiens, UniProt P51787); assay: CiPA cell-based QPatch ion channel inhibition; conditions: maximum concentration of 30 uM
T1 construct: Eurofins Discovery Services (Eurofins Panlabs Inc) ran the assay
Description: (§1) Assays for human CYP activity (CYP phenotyping), CYP2D6 metabolite discovery (metID), ion channel inhibition (CiPA), and G-protein coupled receptor (GPCR) activity (gpcrMAX) were performed through Eurofins Discovery Services (Eurofins Panlabs Inc, St. Charles MO, USA). In the CYP phenotyping panel, human recombinant CYP1A2, CYP2B6, CYP2C8, CYP2C9, CYP2C19, CYP2D6, and CYP3A4 were included in the assay. A concentration of 1E-07 M of PTX 251D was tested, and the percent compound remaining was quantified at 0, 15, 30, 45, and 60 minutes using HPLC-MS/MS. As a positive control, a reference compound was used for each CYP tested (see S1 File for results). In the CYP2D6 metabolism assay, human recombinant CYP2D6 was incubated with an initial concentration of 10 μM and metabolites were quantified after 90 minutes using LC-MS/MS. Two replicates were used for the CYP phenotyping panel and one replicate was used for CYP2D6 metabolite assay. The CiPA assay was a cell-based QPatch on voltage-gated sodium channel NaV1.5 (peak and late/agonist), voltage-gated potassium channels Kv4.3/KChIP2, hERG, KCNQ1/minK, Kir2.1, and voltage-gated calcium channel Cav1.2. The concentrations of PTX 251D assayed were 3, 10, and 30 μM, and a reference compound for each channel was used (see S1 File for results and individual QPatch parameters). In the gpcrMAX assay a panel of 165 GPCRs was tested through the DiscoverX PathHunter beta-arrestin enzyme fragment complementation technology, and a concentration of 10 μM PTX 251D was tested for both agonist and antagonist activity along with a reference compound for each GPCR (see S1 File for results).

human recombinant CYP3A4 = biological target: T2, human recombinant CYP3A4 (Homo sapiens, UniProt P08684); assay: CYP phenotyping panel (PTX 251D clearance); type: in vitro ADME; conditions: 1E-07 M PTX 251D; after 60 minutes
T2 construct: Eurofins Discovery Services (Eurofins Panlabs Inc) ran the assay
Description: as §1

human recombinant CYP2B6 = biological target: T3, human recombinant CYP2B6 (Homo sapiens, UniProt P20813); assay: CYP phenotyping panel (PTX 251D clearance); type: in vitro ADME; conditions: 1E-07 M PTX 251D; after 60 minutes
T3 construct: Eurofins Discovery Services (Eurofins Panlabs Inc) ran the assay
T3 sequence (P20813 1-491): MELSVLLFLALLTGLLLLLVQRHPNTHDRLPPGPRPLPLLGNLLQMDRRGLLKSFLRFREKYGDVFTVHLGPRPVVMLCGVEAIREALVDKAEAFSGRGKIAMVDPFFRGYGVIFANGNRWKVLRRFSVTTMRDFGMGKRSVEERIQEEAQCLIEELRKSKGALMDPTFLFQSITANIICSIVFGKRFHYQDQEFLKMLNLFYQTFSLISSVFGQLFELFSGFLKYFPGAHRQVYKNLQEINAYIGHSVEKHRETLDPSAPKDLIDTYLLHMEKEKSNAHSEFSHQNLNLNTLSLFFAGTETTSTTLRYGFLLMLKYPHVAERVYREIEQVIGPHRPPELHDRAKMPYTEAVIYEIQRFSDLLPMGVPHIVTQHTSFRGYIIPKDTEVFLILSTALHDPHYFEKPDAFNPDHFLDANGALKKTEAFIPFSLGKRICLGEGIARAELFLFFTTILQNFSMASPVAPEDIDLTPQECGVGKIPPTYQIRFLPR
Description: as §1

human recombinant CYP1A2 = biological target: T4, human recombinant CYP1A2 (Homo sapiens, UniProt P05177); assay: CYP phenotyping panel (PTX 251D clearance); type: in vitro ADME; conditions: 1E-07 M PTX 251D; after 60 minutes
T4 construct: Eurofins Discovery Services (Eurofins Panlabs Inc) ran the assay
T4 sequence (P05177 1-516): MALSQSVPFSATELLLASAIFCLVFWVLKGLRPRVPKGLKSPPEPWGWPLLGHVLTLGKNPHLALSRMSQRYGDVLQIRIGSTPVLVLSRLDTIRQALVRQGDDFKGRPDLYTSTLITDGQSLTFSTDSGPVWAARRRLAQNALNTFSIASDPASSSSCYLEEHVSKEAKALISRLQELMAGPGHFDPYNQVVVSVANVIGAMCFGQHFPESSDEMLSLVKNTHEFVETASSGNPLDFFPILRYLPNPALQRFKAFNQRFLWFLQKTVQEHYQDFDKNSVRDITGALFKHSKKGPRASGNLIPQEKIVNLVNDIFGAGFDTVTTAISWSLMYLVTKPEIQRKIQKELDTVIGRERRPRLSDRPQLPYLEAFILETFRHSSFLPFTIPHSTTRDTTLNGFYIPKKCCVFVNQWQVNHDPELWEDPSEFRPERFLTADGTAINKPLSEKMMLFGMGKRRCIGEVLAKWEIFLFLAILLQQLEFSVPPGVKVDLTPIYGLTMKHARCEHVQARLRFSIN
Description: as §1

human recombinant CYP2C9 = biological target: T5, human recombinant CYP2C9 (Homo sapiens, UniProt P11712); assay: CYP phenotyping panel (PTX 251D clearance); type: in vitro ADME; conditions: 1E-07 M PTX 251D; after 60 minutes
T5 construct: Eurofins Discovery Services (Eurofins Panlabs Inc) ran the assay
Description: as §1

human recombinant CYP2D6 = biological target: T6, human recombinant CYP2D6 (Homo sapiens, UniProt P10635); assay: CYP phenotyping panel (PTX 251D clearance); type: in vitro ADME; conditions: 1E-07 M PTX 251D
T6 construct: Eurofins Discovery Services (Eurofins Panlabs Inc) ran the assay
Description: as §1

[2] = biological target: T7, human recombinant CYP2C19 (Homo sapiens, UniProt P33261); assay: CYP phenotyping panel (PTX 251D clearance); type: in vitro ADME; conditions: 1E-07 M PTX 251D; after 60 minutes
T7 construct: Eurofins Discovery Services (Eurofins Panlabs Inc) ran the assay
Description: as §1

T6 sequence (P10635 whole entry): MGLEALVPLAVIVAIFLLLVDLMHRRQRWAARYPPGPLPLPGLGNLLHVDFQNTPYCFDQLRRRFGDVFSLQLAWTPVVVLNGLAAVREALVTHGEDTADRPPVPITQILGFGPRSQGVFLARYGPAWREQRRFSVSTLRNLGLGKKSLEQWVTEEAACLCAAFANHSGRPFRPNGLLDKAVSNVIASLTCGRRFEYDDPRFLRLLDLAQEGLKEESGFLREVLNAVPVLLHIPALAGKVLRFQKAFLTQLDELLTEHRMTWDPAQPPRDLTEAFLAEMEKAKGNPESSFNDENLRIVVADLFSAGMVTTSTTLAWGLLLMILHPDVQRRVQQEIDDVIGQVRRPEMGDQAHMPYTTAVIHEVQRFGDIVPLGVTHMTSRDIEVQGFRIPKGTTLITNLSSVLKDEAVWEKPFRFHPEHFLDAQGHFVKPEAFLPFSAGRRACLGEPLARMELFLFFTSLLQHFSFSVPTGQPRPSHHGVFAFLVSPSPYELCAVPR
T7 sequence (P33261 whole entry): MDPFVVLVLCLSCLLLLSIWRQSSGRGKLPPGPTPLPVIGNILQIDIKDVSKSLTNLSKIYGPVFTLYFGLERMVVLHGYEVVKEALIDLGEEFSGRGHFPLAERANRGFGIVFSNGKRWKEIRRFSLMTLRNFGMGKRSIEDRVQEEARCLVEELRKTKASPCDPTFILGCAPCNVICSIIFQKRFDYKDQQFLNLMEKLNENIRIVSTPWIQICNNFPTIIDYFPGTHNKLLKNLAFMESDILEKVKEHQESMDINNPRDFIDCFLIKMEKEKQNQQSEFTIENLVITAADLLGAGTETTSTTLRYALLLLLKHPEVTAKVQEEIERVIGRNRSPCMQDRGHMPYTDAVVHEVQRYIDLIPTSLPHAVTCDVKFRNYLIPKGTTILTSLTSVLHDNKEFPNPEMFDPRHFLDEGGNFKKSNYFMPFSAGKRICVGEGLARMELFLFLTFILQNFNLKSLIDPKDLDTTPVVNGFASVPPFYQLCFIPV
T2 sequence (P08684 whole entry): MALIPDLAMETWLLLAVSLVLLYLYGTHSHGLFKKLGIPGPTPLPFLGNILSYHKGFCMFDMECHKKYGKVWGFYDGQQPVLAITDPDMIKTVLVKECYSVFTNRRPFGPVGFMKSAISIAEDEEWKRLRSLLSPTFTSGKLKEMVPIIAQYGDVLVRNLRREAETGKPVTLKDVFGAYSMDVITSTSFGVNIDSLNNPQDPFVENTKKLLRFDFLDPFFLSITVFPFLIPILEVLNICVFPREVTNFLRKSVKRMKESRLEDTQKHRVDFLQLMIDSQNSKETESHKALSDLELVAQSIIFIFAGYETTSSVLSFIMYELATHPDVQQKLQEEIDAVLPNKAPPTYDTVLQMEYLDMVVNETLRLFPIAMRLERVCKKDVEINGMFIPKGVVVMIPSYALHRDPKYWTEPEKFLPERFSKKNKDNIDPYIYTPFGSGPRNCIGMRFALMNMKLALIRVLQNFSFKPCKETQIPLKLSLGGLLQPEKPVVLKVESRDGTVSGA
T1 sequence (P51787 whole entry): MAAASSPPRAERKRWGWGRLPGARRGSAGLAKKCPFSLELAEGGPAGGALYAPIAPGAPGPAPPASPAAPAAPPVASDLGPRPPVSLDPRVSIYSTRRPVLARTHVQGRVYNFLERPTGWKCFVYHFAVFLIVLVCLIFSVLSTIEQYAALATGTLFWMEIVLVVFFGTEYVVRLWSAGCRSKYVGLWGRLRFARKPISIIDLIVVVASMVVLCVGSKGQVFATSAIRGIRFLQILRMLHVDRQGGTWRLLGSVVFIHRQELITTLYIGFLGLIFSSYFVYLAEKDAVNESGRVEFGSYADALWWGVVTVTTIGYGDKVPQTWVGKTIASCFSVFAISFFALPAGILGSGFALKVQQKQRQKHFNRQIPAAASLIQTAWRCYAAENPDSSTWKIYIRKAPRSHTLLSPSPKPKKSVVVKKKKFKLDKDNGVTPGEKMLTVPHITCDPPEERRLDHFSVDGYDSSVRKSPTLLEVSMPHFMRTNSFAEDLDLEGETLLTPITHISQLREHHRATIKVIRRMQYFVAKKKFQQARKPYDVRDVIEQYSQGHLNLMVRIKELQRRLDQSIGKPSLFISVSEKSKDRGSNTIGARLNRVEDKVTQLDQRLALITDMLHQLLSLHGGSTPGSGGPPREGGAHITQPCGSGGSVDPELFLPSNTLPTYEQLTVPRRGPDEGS
T5 sequence (P11712 whole entry): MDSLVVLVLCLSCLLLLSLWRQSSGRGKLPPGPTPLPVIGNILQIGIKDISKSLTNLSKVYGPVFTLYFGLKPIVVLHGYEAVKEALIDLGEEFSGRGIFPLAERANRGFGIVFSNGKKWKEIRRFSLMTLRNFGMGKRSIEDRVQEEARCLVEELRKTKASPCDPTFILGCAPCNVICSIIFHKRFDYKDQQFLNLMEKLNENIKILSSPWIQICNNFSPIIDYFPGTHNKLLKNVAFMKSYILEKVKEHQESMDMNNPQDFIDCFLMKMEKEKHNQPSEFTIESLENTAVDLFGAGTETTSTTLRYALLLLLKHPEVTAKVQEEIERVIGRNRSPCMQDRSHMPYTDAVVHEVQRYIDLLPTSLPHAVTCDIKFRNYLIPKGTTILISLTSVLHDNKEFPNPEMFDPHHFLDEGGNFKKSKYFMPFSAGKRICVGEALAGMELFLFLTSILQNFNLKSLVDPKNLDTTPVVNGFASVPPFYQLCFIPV

In the case of `CCCCC(C)C=C1CN2CCCC2C(C)(O)C1` (stereo not drawn) [PTX 251D, pumiliotoxin (PTX 251D)], the “effect on voltage-gated sodium and potassium channels” value [1] is given as “inhibits both types of channels”, the “inhibitory effect on KCNQ1/minK” value (KCNQ1/minK) is given as “no inhibitory effect” and the “clearance of PTX 251D by CYP3A4” value (human recombinant CYP3A4) is given as “minimal clearance”. The “clearance of PTX 251D by CYP2B6” value (human recombinant CYP2B6) was “minimal clearance”, the “clearance of PTX 251D by CYP1A2” value (human recombinant CYP1A2) was “minimal clearance” and the “clearance of PTX 251D by CYP2C9” value (human recombinant CYP2C9) was “minimal clearance”. For the same compound, the “PTX 251D remaining after incubation with CYP2D6” value (human recombinant CYP2D6; after 15 minutes) was “most of the initial compound depleted”, the “clearance of PTX 251D by CYP2D6” value (human recombinant CYP2D6; percent compound remaining at 0-60 minutes, HPLC-MS/MS) was “rapid clearance” and the “clearance of PTX 251D by CYP2C19” value [2] was “minimal clearance”.
